According to US11718618B2, “Substituted pyrido[2,1-a]isoquinolines as VMAT2 inhibitors” (priority 2021, dated 2023):
Where two headings read alike, the source gives them in different places.

How the values were obtained:
human VMAT2 = human VMAT2 (Homo sapiens (Human), UniProt Q05940); assay: VMAT2 radioligand binding, 3H-dihydrotetrabenazine competition on human platelet homogenate
Procedure, shortened: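 Ki from scintillation counting of filter-bound ³H-dihydrotetrabenazine (10 nM) after 90 min, 25 °C incubation with twelve concentrations of compound. Membranes: human platelet homogenate, 30 μg protein per well; buffer DPBS, 1 mM EDTA, pH 7.4.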

[1] = Stability of compounds in human liver microsomes; format: in vitro ADME; details: for CLint scaled at 0.5 μM / half-life at 0.5 μM: both sexes, pH 7.4; for CLint scaled at 0.5 μM: liver microsomes, calculated from HLM half-life, read-out: HLM Scaled Intrinsic Clearance; for CLint scaled at 0.5 μM / Predicted Max. Bioavailability (% F) / HLM Predicted Systemic Clearance: human; for half-life at 0.5 μM: 0.5 μM compound, 0.5 mg/mL human liver microsomes, 37° C., maxed at 420 minutes, read-out: HLM Elimination half-life (t1/2, min); for Predicted Max. Bioavailability (% F): predicted from HLM data; for HLM Predicted Systemic Clearance: scaled from HLM half-life (Obach method)
Procedure: A test compound (0.5 μM) was incubated with pooled mixed gender liver microsomes from humans (0.5 mg/mL total protein) at 37° C. in the presence of an NADPH-generating system containing 50 mM, pH 7.4 potassium phosphate buffer, 3 mM magnesium chloride, 1 mM EDTA, 1 mM NADP, 5 mM glusose-6-phosphate, and 1 Unit/mL glucose-6-phosphate dehydrogenase. All concentrations were relative to the final incubation volume of 125 μL. Incubations were conducted at 37° C. for 0, 5, 10, 20, 40, and 60 minutes in a water bath and terminated by rapid mixing with 150 μL of ice-cold acetonitrile containing internal standard. Precipitated proteins were removed by centrifugation prior to LC-MS/MS analysis. Aliquots of the resulting supernatant fractions were analyzed by LC-MS/MS monitoring for depletion of parent compound. The resultant peak area ratio versus time data was fitted to a non-linear regression using XLfit Scientific Curve Fitting Software (IDBS Ltd., Surrey, UK) and the elimination half-life (t1/2, min) was calculated from the slope. […] Additional values calculated included predicted extraction ratio and predicted maximum bioavailability.

[2] = 10 nM 3H-dihydrotetrabenazine, human platelet homogenate, 25° C., 90 minutes, read-out: VMAT2 Ki

Chain of human VMAT2 (Q05940 whole entry): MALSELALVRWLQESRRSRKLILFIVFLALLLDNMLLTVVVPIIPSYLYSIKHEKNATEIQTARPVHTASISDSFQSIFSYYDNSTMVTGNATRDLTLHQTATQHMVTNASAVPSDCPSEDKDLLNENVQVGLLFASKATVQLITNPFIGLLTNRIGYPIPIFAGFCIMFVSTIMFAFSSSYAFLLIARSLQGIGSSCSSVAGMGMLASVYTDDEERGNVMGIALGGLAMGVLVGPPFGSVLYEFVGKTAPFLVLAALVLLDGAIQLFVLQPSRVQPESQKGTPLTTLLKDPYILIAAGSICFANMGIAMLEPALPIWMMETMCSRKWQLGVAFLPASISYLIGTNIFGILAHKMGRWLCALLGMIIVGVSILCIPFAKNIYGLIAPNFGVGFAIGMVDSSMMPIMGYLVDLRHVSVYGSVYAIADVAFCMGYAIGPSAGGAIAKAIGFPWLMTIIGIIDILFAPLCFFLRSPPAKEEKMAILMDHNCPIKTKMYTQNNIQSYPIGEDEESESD

Row | SMILES | Ki (human VMAT2; [2]) [nM] | CLint scaled at 0.5 μM [1] [mL/min/kg] | half-life at 0.5 μM [1] [min] | Predicted Max. Bioavailability (% F) [1] [% F] | HLM Predicted Systemic Clearance [1] [mL/min/kg] | Ki (human VMAT2) [nM]
1 | COc1cc2c(cc1OCC1(CC#N)CC1)CCN1C[C@@H](CC(C)(C)C)[C@H](O)C[C@H]21 [Compound 4-46, 2-[1-({[(2R,3R,11bR)-3-(2,2-dimethylpropyl)-2-hydroxy-10-methoxy-1H,2H,3H,4H,6H,7H,11bH-pyrido[2,1-a]isoquinolin-9-yl]oxy}methyl)cyclo-propyl]acetonitrile] | 25 | 45.1 | 28 | 31 | 13.86 | –
2 | COc1cc2c(cc1OCC(C)(C)O)CCN1C[C@@H](CC(C)(C)C)[C@H](O)C[C@H]21 [Compound 4-47, (2R,3R,11bR)-3-(2,2-dimethylpropyl)-9-(2-hydroxy-2-methylpropoxy)-10-methoxy-1H,2H,3H,4H,6H,7H,11bH-pyrido[2,1-a]isoquinolin-2-ol] | 15 | ≤ 2.97 | ≥ 420 | ≥87 | ≤2.59 | –
3 | COc1cc2c(cc1OC[C@@H](O)C(F)(F)F)CCN1C[C@@H](CC(C)(C)C)[C@H](O)C[C@H]21 [Compound 4-49, (2R,3R,11bR)-3-(2,2-dimethylpropyl)-10-methoxy-9-[(2R)-3,3,3-trifluoro-2-hydroxypropoxy]-1H,2H,3H,4H,6H,7H,11bH-pyrido[2,1-a]isoquinolin-2-ol] | 20 | ≤ 2.97 | ≥ 420 | ≥87 | ≤2.59 | –
4 | COc1cc2c(cc1OCC(O)C(F)F)CCN1C[C@@H](CC(C)(C)C)[C@H](O)C[C@H]21 (stereo partly drawn) [Compound 4-51, (2R,3R,11bR)-9-(3,3-difluoro-2-hydroxypropoxy)-3-(2,2-dimethylpropyl)-10-methoxy-1H,2H,3H,4H,6H,7H,11bH-pyrido[2,1-a]isoquinolin-2-ol] | 9.4 | ≤ 2.97 | ≥ 420 | ≥87 | ≤2.59 | –
5 | [2H]C([2H])([2H])Oc1cc2c(cc1OC)[C@H]1C[C@@H](O)[C@H](CC(C)(C)C)CN1CC2 [Compound 4-52, (2R,3R,11bR)-3-(2,2-dimethylpropyl)-9-(methoxy-d3)-10-methoxy-1H,2H,3H,4H,6H,7H,11bH-pyrido[2,1-a]isoquinolin-2-ol] | – | ≤ 2.97 | ≥ 420 | ≥87 | ≤2.59 | 2.5
6 | COc1cc2c(cc1O[C@@H]1CCOC1)CCN1C[C@@H](CC(C)(C)C)[C@H](O)C[C@H]21 [Compound 4-53, (2R,3R1bR)-3-(2,2-dimethylpropyl)-10-methoxy-9-[(3R)-oxolan-3-yloxy]-1H,2H,3H,4H,6H,7H,11bH-pyrido[2,1-a]isoquinolin-2-ol] | 12 | 8.57 | 146 | 70 | 6 | –
7 | COc1cc2c(cc1O[C@H]1CCOC1)CCN1C[C@@H](CC(C)(C)C)[C@H](O)C[C@H]21 [Compound 4-54, (2R,3R,11bR)-3-(2,2-dimethylpropyl)-10-methoxy-9-[(3S)-oxolan-3-yloxy]-1H,2H,3H,4H,6H,7H,11bH-pyrido[2,1-a]isoquinolin-2-ol] | 12 | 7.59 | 164 | 73 | 5.5 | –
8 | C=C(C)COc1cc2c(cc1OC)[C@H]1C[C@@H](O)[C@H](CC(C)(C)C)CN1CC2 [Compound 4-56, (2R,3R,11bR)-3-(2,2-dimethylpropyl)-10-methoxy-9-[(2-methylprop-2-en-1-yl)oxy]-1H,2H,3H,4H,6H,7H,11bH-pyrido[2,1-a]isoquinolin-2-ol] | 0.52 | 121 | 10 | 14 | 17.16 | –
9 | COc1cc2c(cc1OCC1(C(F)F)CC1)CCN1C[C@@H](CC(C)(C)C)[C@H](O)C[C@H]21 [Compound 4-57, (2R,3R,11bR)-9-{[1-(difluoromethyl)cyclo-propyl]methoxy}-3-(2,2-dimethylpropyl)-10-methoxy-1H,2H,3H,4H,6H,7H,11bH-pyrido[2,1-a]isoquinolin-2-ol] | 0.93 | ≤ 2.97 | ≥ 420 | ≥87 | ≤2.59 | –
10 | CC[C@@H](O)COc1cc2c(cc1OC)[C@H]1C[C@@H](O)[C@H](CC(C)(C)C)CN1CC2 [Compound 4-58, (2R,3R,11bR)-3-(2,2-dimethylpropyl)-9-[(2R)-2-hydroxybutoxy]-10-methoxy-1H,2H,3H,4H,6H,7H,11bH-pyrido[2,1-a]isoquinolin-2-ol] | – | 5.99 | 208 | 77 | 4.61 | 1.1
11 | COc1cc2c(cc1OCc1ccc(C#N)o1)CCN1C[C@@H](CC(C)(C)C)[C@H](O)C[C@H]21 [Compound 4-59, 5-({[(2R,3R,11bR)-3-(2,2-dimethylpropyl)-2-hydroxy-10-methoxy-1H,2H,3H,4H,6H,7H,11bH-pyrido[2,1-a]isoquinolin-9-yl]oxy}methyl)furan-2-carbonitrile] | 1.5 | 24.8 | 50 | 45 | 11.08 | –
12 | COc1cc2c(cc1OCc1ccccc1)CCN1C[C@@H](CC(C)(C)C)[C@H](O)C[C@H]21 [Compound 4-60, (2R,3R,11bR)-9-(benzyloxy)-3-(2,2-dimethylpropyl)-10-methoxy-1H,2H,3H,4H,6H,7H,11bH-pyrido[2,1-a]isoquinolin-2-ol] | 3.1 | 33.9 | 37 | 37 | 12.58 | –
13 | COc1cc2c(cc1OCC1(F)CCC1)CCN1C[C@@H](CC(C)(C)C)[C@H](O)C[C@H]21 [Compound 4-61, (2R,3R,11bR)-3-(2,2-dimethylpropyl)-9-[(1-fluorocyclobutyl)methoxy]-10-methoxy-1H,2H,3H,4H,6H,7H,11bH-pyrido[2,1-a]isoquinolin-2-ol] | 3.5 | 42 | 30 | 32 | 13.55 | –
14 | COc1cc2c(cc1OCC(O)CC(F)(F)F)CCN1C[C@@H](CC(C)(C)C)[C@H](O)C[C@H]21 (stereo partly drawn) [Compound 4-62, (2R,3R,11bR)-3-(2,2-dimethylpropyl)-10-methoxy-9-(4,4,4-trifluoro-2-hydroxybutoxy)-1H,2H,3H,4H,6H,7H,11bH-pyrido[2,1-a]isoquinolin-2-ol] | 3.7 | ≤ 2.97 | ≥ 420 | ≥87 | ≤2.59 | –
15 | COc1cc2c(cc1OCc1ccc(F)cc1)CCN1C[C@@H](CC(C)(C)C)[C@H](O)C[C@H]21 [Compound 4-63, (2R,3R,11bR)-3-(2,2-dimethylpropyl)-9-[(4-fluorophenyl)methoxy]-10-methoxy-1H,2H,3H,4H,6H,7H,11bH-pyrido[2,1-a]isoquinolin-2-ol] | 4.2 | 42.3 | 29 | 32 | 13.58 | –
16 | COc1cc2c(cc1OCc1cccc(F)c1)CCN1C[C@@H](CC(C)(C)C)[C@H](O)C[C@H]21 [Compound 4-64, (2R,3R,11bR)-3-(2,2-dimethylpropyl)-9-[(3-fluorophenyl)methoxy]-10-methoxy-1H,2H,3H,4H,6H,7H,11bH-pyrido[2,1-a]isoquinolin-2-ol] | 5.5 | 38 | 33 | 35 | 13.1 | –
17 | COc1cc2c(cc1OCC(F)(F)Cl)CCN1C[C@@H](CC(C)(C)C)[C@H](O)C[C@H]21 [Compound 4-65, (2R,3R,11bR)-9-(2-chloro-2,2-difluoroethoxy)-3-(2,2-dimethylpropyl)-10-methoxy-1H,2H,3H,4H,6H,7H,11bH-pyrido[2,1-a]isoquinolin-2-ol] | 8.7 | 5.5 | 227 | 78 | 4.31 | –
